The source of these data is ChEMBL document CHEMBL4130359, “Indazole-based ligands for estrogen-related receptor α as potential anti-diabetic agents” (Eur J Med Chem, 2017).

Series [1] has as its system Rattus norvegicus. Put plainly: Antidiabetic activity in Zucker rat sub-chronic fa/fa prediabetic model assessed as decrease in plasma glucose AUC (0 to 120 mins) at 10 mg/kg, po qd during 10 days study by OGTT relative to control. Also noted: scale not given: the % may be the effect or the level left. It counts as functional.
For series [2], the system named is Rattus norvegicus. The experiment in a line: Toxicity in Zucker rat sub-chronic fa/fa prediabetic model assessed as effect on liver enzymes at 10 mg/kg, po qd during 10 days study. To be noted: in vivo, 240 h. In kind it is organism-based.
For the next series, the target named is Estrogen receptor beta (Homo sapiens, UniProt Q92731). The experiment in a line: Inhibition of fluormone ES2 binding to recombinant full length human ERbeta expressed in insect cells by fluorescence polarization assay.
For series [3], the target named is Oxysterols receptor LXR-beta (Homo sapiens, UniProt P55055). The experiment in a line: Antagonist activity at recombinant GST-tagged human LXRbeta LBD assessed as inhibition of TO901317-induced fluorescein-labeled coactivator peptide recruitment preincubated with enzyme followed by coactivator addition by LanthaScreen TR-FRET assay. On the technique in general: TR-FRET usually uses a lanthanide donor and a delayed reading to cut background.

Series [4] is described as follows: Terminal half life in Sprague-Dawley rat at 10 mg/kg administered via oral gavage by LC-MS analysis. It counts as ADME, organism-based. The note with it: in vivo, read-out: beta t1/2 (converted).
The test system of series [5] is Rattus norvegicus. The experiment in a line: Antidiabetic activity in Zucker rat sub-chronic fa/fa prediabetic model assessed as fasting blood glucose level at 3 mg/kg, po qd for 31 days measured on day 29 post dose (reference value: 163 +/- 9.2 mg/dl). It counts as functional.
Series [6] can be described thus: Cmax in Zucker rat sub-chronic fa/fa prediabetic model at 1 mg/kg, po qd for 26 days measured on day 26 post last dose. It counts as ADME, organism-based. Also noted: dose 1 mg/kg, route oral. To be noted: in vivo.
Series [7] concerns Rattus norvegicus. Put plainly: Toxicity in Zucker rat sub-chronic fa/fa prediabetic model assessed as heart weight at 10 mg/kg, po qd for 31 days measured on day 32 (reference value: 1.19 +/- 0.04 g). In kind it is organism-based. The note with it: in vivo, 744 h.
Series [8] concerns Rattus norvegicus. The experiment in a line: Toxicity in Zucker rat sub-chronic fa/fa prediabetic model assessed as serum triglyceride level at 10 mg/kg, po qd for 31 days measured on day 32 (reference value: 1382 +/- 268 mg/dl). In kind it is organism-based. To be noted: in vivo, 744 h.
For series [9], the system named is Rattus norvegicus. Put plainly: Toxicity in Zucker rat sub-chronic fa/fa prediabetic model assessed as serum creatinine level at 3 mg/kg, po qd for 31 days measured on day 32 (reference value: 0.71 +/- 0.07 mg/dl). It counts as organism-based. The note with it: in vivo, 744 h.
The species entered for series [10] is Rattus norvegicus. Put plainly: Toxicity in Zucker rat sub-chronic fa/fa prediabetic model assessed as increase in epididymal white adipose tissue weight during 15 day single dose study. In kind it is organism-based. To be noted: in vivo, 360 h.
The nature of series [11]: Drug uptake in muscle of Zucker rat sub-chronic fa/fa prediabetic model at 12.5 mg/kg, po qd for 11 days. It counts as ADME, organism-based, Muscle tissue. To be noted: read-out: Drug uptake.
In series [12] the test system is Rattus norvegicus. It counts as functional, Zucker.
Series [13] in a line: Cmax in […] chronic ob/ob model at 10 mg/kg, po qd for 28 days measured on day 28 post last dose. It counts as ADME, organism-based. Also noted: dose 10 mg/kg, route oral. The note with it: in vivo.
The subject of series [14] is Rattus norvegicus. The experiment in a line: Effect on IDH3B gene expression in epididymal white adipose tissue of Zucker rat sub-chronic fa/fa prediabetic model at 10 mg/kg, po qd for 15 days by microarray analysis relative to control. It counts as functional.
The subject of series [15] is Rattus norvegicus. Put plainly: Effect on SDHD gene expression in epididymal white adipose tissue of Zucker rat sub-chronic fa/fa prediabetic model at 10 mg/kg, po qd for 15 days by microarray analysis relative to control. In kind it is functional.
For series [16], the system named is Rattus norvegicus. The experiment in a line: Effect on ACADM gene expression in epididymal white adipose tissue of Zucker rat sub-chronic fa/fa prediabetic model at 10 mg/kg, po qd for 15 days by microarray analysis relative to control. It counts as functional.
Series [17] relates to Rattus norvegicus. Put plainly: Effect on UGP2 gene expression in epididymal white adipose tissue of Zucker rat sub-chronic fa/fa prediabetic model at 10 mg/kg, po qd for 15 days by microarray analysis relative to control. In kind it is functional.
Series [18] deals with Rattus norvegicus. The experiment in a line: Effect on PPP2R5B gene expression in epididymal white adipose tissue of Zucker rat sub-chronic fa/fa prediabetic model at 10 mg/kg, po qd for 15 days by microarray analysis relative to control. In kind it is functional.
Series [19] deals with Rattus norvegicus. Put plainly: Effect on HSP90B1 gene expression in epididymal white adipose tissue of Zucker rat sub-chronic fa/fa prediabetic model at 10 mg/kg, po qd for 15 days by microarray analysis relative to control. In kind it is functional.
Series [20] relates to Rattus norvegicus. The experiment in a line: Effect on TGFB1 gene expression in epididymal white adipose tissue of Zucker rat sub-chronic fa/fa prediabetic model at 10 mg/kg, po qd for 15 days by microarray analysis relative to control. It counts as functional.

Sequence of Estrogen receptor beta (Q92731 whole entry, the tested form may be a part): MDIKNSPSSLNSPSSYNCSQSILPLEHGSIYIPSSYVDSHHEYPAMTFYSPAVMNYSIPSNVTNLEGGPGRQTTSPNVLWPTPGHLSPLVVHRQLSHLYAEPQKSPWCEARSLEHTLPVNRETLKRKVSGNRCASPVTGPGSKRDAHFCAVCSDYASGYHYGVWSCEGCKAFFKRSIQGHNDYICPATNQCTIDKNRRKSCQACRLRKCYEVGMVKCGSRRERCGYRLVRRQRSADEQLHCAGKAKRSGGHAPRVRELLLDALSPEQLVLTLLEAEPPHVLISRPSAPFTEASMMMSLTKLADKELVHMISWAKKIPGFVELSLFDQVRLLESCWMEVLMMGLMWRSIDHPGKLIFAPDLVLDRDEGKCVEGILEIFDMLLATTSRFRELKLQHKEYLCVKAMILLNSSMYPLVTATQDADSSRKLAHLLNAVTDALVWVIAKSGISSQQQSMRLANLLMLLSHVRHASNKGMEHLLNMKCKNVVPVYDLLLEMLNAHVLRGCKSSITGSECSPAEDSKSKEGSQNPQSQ
Sequence of Oxysterols receptor LXR-beta (P55055 whole entry, the tested form may be a part): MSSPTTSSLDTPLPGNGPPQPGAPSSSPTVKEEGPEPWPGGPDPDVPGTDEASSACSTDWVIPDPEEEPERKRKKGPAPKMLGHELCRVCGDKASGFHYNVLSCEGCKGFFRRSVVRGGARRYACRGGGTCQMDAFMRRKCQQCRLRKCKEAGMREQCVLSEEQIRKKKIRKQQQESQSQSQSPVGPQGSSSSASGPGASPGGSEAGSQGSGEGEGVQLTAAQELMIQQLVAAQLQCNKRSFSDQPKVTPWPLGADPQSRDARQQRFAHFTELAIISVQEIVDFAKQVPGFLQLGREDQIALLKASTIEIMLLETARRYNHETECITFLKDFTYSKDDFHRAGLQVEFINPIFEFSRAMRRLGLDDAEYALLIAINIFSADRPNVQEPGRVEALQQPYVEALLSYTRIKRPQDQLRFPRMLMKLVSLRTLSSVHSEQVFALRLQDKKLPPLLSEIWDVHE

For `CN1CC[C@@H](N2C(=O)S/C(=C\c3ccc4c(cnn4Cc4ccc(Cl)cc4C(F)(F)F)c3)C2=O)[C@H](F)C1`, the Activity in the series on Rattus norvegicus [1] was -46%; with Rattus norvegicus [2], “Non-Toxic”; in the series with Rattus norvegicus [5], 118 mg/dL; with Rattus norvegicus [7] it was 1.11 g; with Rattus norvegicus [8] it was 341 mg/dL; in the series with Rattus norvegicus [9], 0.56 mg/dL. Further, the results for the Activity entry in the series listed under Rattus norvegicus [10] and in the series with Rattus norvegicus [12] were “Non-Toxic” and 134 mg/dL, respectively. For the same compound, the IC50 (at Estrogen receptor beta; in series [3]) was over 10 µM each time. In series [4], the half-life is 4.7 h. The Cmax (usually the maximum level reached in the sampled fluid or tissue) in series [6] turned out to be 316 ng/mL; in series [13], 454 ng/mL. Moreover, in series [11], the concentration at 264 h was 2820 ng/g. In addition, the “fold change (FC)” value in the series on Rattus norvegicus [14] was 1.655; in the series on Rattus norvegicus [15], 1.275; in the series with Rattus norvegicus [16] it was 1.475; with Rattus norvegicus [17], 1.803; in the series with Rattus norvegicus [18], 1.276; with Rattus norvegicus [19], -1.258. Also, the “fold change (FC)” value in the series with Rattus norvegicus [20] was -1.47.
